Test systems include SW-620; 786-0; EKVX; NCI/ADR-RES; SNB-19; SF-295; HCC 2998; U-251; RXF 393; NCI-H460; NCI-H522; A498; PC-3; MOLT-4; MDA-MB-231; MCF7; COLO 205; SN12C; SF-268; OVCAR-3.
Common to all, as to test: NCI tumour cell line growth inhibition, 48 h

Molecules are shown by their SMILES.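 These data come from cells grown in 96-well plates and exposed to compound for 48 hours at five concentrations. At the GI50, growth is halved.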 The source made the active and inactive calls. Rule as the data show it: active = GI50 up to about 1.1 µM and inactive = higher.

Turning to `CCCCCCCCCCCCCC(=O)O[C@H]1CC[C@H](NC(=O)[C@H](OC)[C@H](O)[C@@H](O)[C@H](O)/C=C/C(C)C)C(=O)NC1` [BENGAMIDE A], the GI50 is 5.12 nM (active) with SW-620; 5.12 nM (active) in the assay with 786-0; 234 nM (active) with EKVX; 5180 nM (inactive) in the assay on NCI/ADR-RES; 11.5 nM (active) in the assay on SNB-19; 92.7 nM (active) with SF-295. Further, the GI50 is 117 nM (active) with HCC 2998; 7.05 nM (active) with U-251; 175 nM (active) in the assay with RXF 393; 5.12 nM (active) with NCI-H460; 11 nM (active) with NCI-H522; 38.9 nM (active) in the assay on A498. Moreover, the GI50 in the assay on PC-3 was 147 nM (active); in the assay on MOLT-4 it was 5.12 nM (active); in the assay on MDA-MB-231, 137 nM (active); with MCF7, 39.2 nM (active); in the assay with COLO 205 it was 5.12 nM (active); with SN12C, 5.42 nM (active). Besides, the GI50 is 8.93 nM (active) in the assay with SF-268 and 14.7 nM (active) in the assay on OVCAR-3.

Values taken from ChEMBL document CHEMBL1201862, “PubChem BioAssay data set” (2004).
